Test results: patent publication US6599943B1, “Use of hydroxyguanidines” (WaPharm AB, priority 1996, dated 2003)

Experiments:
Format in all cases: biochemical
[1] = molecular target: T1, bovine milk xanthine oxidase (Bos taurus, UniProt P80457); assay: Oxidation of xanthine to uric acid by xanthine oxidase in absence and presence of oxygen, spectrophotometric; set-up: host or cells: bovine milk; conditions: 50 μM guanoxabenz, 50 μM xanthine; both in the absence of oxygen (nitrogen) and in the presence of 20% oxygen
Experimental: Capacity of hydroxyguanidines to sustain oxidation of xanthine by xanthine oxidase in the absence and in the presence of oxygen. The capacity of hydroxyguanidines to sustain the oxidation of xanthine to uric acid in the absence and presence of oxygen was assayed by using a spectrophotometric method. In this method bovine milk xanthine oxidase was injected to a Helma® sealable cuvette for anaerobic applications thereby creating 1 ml of a reaction mixture that contained reagents as follows: 50 μM of a hydroxyguanidine, 50 μM xanthine, 0.05 units/ml bovine milk xanthine oxidase, 50 mM Tris and 1.5 mM EDTA; the pH of the reaction mixture being 7.5, and the temperature being 20° C. Anaerobic conditions were assured by pre-gassing all solutions used for 5-10 min, with nitrogen whereas aerobic conditions was assured by exposing the solutions to air. The rate of formation of uric acid was monitored spectrophotometrically by measuring the increase in absorbance at 295 nm (the absorption maximum for uric acid) at timed intervals. In FIG. 5 are shown examplary recordings from these tests. In this test the hydroxyguanidine was guanoxabenz.
Target sequence in this assay (P80457 whole entry): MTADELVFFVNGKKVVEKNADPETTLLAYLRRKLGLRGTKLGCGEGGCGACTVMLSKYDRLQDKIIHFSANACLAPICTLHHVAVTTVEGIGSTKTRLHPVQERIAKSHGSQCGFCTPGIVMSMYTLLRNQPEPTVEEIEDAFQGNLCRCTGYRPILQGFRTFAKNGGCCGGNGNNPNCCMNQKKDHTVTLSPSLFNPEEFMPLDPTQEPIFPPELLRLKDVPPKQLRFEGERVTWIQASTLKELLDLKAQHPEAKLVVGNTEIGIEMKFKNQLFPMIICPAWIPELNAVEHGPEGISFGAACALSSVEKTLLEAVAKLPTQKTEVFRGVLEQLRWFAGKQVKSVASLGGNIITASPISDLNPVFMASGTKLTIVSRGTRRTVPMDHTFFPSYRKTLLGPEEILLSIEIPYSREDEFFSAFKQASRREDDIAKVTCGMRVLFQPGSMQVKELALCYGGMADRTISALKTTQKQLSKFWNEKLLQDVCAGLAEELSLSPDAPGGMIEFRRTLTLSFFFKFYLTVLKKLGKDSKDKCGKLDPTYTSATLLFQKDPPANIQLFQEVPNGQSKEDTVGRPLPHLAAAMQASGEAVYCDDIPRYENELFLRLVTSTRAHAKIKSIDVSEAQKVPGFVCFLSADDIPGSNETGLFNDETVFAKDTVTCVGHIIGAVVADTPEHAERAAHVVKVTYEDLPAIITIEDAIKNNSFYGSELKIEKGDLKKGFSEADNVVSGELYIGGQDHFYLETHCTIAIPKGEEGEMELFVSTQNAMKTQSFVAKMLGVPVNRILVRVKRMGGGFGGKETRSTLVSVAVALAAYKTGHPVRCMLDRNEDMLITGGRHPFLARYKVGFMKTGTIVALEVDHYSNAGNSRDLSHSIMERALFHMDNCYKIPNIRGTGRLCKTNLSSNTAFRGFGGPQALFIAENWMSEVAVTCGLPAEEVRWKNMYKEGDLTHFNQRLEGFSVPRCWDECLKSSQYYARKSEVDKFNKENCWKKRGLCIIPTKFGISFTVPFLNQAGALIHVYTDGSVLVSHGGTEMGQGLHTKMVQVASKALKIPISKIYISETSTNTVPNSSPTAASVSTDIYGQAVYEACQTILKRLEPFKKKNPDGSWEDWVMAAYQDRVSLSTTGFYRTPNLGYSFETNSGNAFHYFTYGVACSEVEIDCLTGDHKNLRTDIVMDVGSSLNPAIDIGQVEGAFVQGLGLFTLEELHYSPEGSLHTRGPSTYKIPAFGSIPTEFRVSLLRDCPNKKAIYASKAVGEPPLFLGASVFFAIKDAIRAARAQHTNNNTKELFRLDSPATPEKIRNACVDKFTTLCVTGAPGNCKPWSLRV

[2] = molecular target: T2, crude spleen cytosol (hydroxyguanidine reducing activity) (Rattus norvegicus, UniProt P22985); assay: Reduction of guanoxabenz to guanabenz by crude spleen cytosol, HPLC
T2 construct: from tissue; host or cells: rat spleen (70,000 x g supernatant)
Experimental: Preparation of crude spleen cytosol. Rat spleens were homogenised (1:10 w/v) in ice-cold […] Tris, 1.5 mM EDTA, pH 7.5 with glass/Teflon homogenizer. The homogenate was centrifuged at 30,000×g for 15 min at 4° C. and stored frozen at −80° C. After thawing the supernatant was centrifuged at 70,000×g for 1 hr at 4° C. and used for the assays.
Identification of a reaction product derived from hydroxyguanidine. Crude spleen cytosol was incubated at 25° C. with 70 μM guanoxabenz (2(2,6-dichlorophenyl)methylene-N-hydroxyhydrazine carboxi-imidamide) in the presence of 25 mM Tris-HCl, 0.75 mM EDTA, the total volume being 4 ml. Aliquots of 250 μl were then withdrawn from the reaction mixture after 1, 30, 60, 90 or 240 minutes and heated in a water bath to 80° C. for 5 minutes. The sample was then centrifuged and the supernatant filtered through a 0.22 μm Millipore filter whereafter 200 μl of the filtrate was injected into a reverse phase chromatography column (Waters Symmetry C8) equilibrated in 40% methanol, 60% 10 mM Na-acetate buffer, pH 4.5. The elution speed was 0.5 ml/min and the eluted substances were detected by a UV-monitor set at 260 nm.
In FIG. 1 is shown exemplary details on the time course of appearence of the product.
Preparation of the enzymatic reaction product for NMR-analysis. To obtain enough of the product for NMR studies guanoxabenz (500 μM) was pre-incubated with the crude spleen cytosol for 1 hr. […] Total volume of the reaction mixture was 4 ml. After the incubation the reaction mixture was boiled, centrifuged and filtered, essentially as described above, and aliquots of the materials injected onto the HPLC column. […] The fractions containing the product peak were collected, pooled and lyophilized and then subjected to NMR-analysis.

[3] = molecular target: T1, bovine milk xanthine oxidase; assay: Hydroxyguanidine reducing activity of bovine xanthine oxidase, simplified radioligand binding assay; conditions: 100 μM xanthine versus xanthine absent
Experimental: (§1) In a simplified form of the assay the α2-adrenoceptor containing membranes and the [^3H]RX821002 radioligand were added together with the hydroxyguanidine reducing activity and the hydroxyguanidine, and the mixture then incubated for a suitable time. In this implementation of the assay the reduction of the hydroxyguanidine occurred simultaneously with the assay of the […]. Example of this variant of the assay is given in Examples 4 and 8.
(§2) Hydroxyguanidine reducing activity of bovine xanthine oxidase.
Target sequence in this assay (P80457 2-1332): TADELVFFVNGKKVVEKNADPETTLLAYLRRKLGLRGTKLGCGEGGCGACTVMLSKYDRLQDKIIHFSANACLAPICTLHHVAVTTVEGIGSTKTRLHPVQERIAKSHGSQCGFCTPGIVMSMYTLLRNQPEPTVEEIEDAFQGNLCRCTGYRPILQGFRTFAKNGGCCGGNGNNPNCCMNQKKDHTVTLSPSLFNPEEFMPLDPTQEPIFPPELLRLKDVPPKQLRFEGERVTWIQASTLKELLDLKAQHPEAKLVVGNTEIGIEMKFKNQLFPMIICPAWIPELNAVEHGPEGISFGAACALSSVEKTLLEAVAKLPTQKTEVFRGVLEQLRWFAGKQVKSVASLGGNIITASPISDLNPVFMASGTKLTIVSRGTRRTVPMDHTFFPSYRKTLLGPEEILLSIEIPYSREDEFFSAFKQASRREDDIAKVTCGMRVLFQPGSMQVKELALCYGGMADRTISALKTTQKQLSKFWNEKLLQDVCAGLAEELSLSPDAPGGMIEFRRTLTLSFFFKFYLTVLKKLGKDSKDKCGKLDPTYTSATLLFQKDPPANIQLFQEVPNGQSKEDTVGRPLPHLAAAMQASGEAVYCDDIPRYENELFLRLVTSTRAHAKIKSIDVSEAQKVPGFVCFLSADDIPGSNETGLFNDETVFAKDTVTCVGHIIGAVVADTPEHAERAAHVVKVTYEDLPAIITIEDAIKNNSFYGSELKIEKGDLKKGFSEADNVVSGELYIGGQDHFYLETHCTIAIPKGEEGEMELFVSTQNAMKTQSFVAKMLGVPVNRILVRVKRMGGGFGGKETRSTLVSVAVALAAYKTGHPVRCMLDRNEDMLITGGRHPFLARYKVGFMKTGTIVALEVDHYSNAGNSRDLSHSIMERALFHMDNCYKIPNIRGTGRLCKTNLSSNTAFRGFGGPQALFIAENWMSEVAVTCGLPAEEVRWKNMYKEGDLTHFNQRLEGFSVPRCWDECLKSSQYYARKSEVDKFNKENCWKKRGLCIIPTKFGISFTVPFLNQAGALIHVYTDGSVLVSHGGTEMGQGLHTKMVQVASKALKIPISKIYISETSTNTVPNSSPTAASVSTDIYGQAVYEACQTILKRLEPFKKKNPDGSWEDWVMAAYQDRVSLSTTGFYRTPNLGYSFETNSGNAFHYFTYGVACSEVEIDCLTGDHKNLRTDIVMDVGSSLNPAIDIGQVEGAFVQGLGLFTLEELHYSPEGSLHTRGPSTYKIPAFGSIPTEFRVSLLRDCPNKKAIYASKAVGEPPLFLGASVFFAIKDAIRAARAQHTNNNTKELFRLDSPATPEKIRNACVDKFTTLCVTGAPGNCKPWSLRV

[4] = tested on: bovine milk xanthine oxidase; assay: as above
Experimental: as §1, §2

[5] = 70 μM guanoxabenz, 25° C., after 1 minute incubation, HPLC 260 nm
[6] = 70 μM guanoxabenz, after 1 hour

T2 sequence (P22985 whole entry): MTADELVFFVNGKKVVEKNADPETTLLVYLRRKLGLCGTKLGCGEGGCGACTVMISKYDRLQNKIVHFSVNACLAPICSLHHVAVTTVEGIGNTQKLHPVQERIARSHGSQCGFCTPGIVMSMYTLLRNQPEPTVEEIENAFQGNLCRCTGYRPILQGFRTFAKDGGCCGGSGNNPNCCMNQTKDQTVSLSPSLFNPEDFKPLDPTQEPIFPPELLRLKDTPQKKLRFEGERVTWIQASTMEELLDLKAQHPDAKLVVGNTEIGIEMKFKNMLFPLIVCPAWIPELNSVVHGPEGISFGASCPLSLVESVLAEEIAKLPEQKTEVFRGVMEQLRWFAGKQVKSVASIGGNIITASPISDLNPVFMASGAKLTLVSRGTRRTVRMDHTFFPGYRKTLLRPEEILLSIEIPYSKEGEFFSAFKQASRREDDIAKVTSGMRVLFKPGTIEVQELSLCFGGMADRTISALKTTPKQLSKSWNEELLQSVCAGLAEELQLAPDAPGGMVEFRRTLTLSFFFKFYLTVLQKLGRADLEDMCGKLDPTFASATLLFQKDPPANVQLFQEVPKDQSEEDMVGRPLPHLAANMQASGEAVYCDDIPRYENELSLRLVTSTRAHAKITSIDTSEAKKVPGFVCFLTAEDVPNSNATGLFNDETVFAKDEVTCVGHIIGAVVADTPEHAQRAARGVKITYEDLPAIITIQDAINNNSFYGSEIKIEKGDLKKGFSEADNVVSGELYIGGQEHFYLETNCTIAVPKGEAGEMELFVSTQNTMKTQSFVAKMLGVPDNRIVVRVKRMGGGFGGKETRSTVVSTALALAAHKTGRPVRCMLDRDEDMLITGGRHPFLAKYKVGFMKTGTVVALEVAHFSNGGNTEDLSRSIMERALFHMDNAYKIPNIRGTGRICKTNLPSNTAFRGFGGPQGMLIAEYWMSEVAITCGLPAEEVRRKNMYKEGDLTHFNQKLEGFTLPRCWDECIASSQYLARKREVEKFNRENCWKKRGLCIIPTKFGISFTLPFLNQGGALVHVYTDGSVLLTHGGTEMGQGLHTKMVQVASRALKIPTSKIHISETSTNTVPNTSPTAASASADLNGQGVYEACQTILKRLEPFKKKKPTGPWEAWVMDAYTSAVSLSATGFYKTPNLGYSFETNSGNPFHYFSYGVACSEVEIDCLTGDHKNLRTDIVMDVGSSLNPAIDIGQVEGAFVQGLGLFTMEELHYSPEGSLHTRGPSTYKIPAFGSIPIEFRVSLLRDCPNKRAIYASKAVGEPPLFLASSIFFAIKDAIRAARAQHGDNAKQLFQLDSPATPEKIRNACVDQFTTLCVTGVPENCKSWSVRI

N=C(NO)NN=Cc1c(Cl)cccc1Cl [Guanoxabenz, 2(2,6-dichlorophenyl)methylene-N-hydroxyhydrazine carboxi-imidamide]
rate of the formation of uric acid (absorbance at 295 nm) [1]: substantial increase | UV-absorption corresponding to the guanabenz peak [2, 5]: 5% | UV-absorption in the guanoxabenz peak [2, 5]: 95% | guanabenz peak as part of total absorbance of the chromatograms [2, 6]: about ⅓ | guanoxabenz peak as part of total absorbance of the chromatograms [2, 6]: ⅔ | size of guanabenz and guanoxabenz peaks ([2]; 70 μM guanoxabenz, after 4 hours): about equal size | peak corresponding to guanabenz, share of UV-absorbing material (260 nm) ([2]; 500 μM guanoxabenz, 1 hr, MgCl2 (2 mM) and DTT (2 mM)): more than 99% | increase in the apparent affinity on addition of xanthine [3]: about 40 fold | guanoxabenz converted to guanabenz ([4]; in the absence of xanthine): none | conversion of guanoxabenz to guanabenz ([4]; in the presence of xanthine): about 88%
